Where two headings read alike, the source gives them in different places. *: point of attachment. Cbz = O=C(OCc1ccccc1)*
Legend:
[1] = molecular target: T1, human neutrophil elastase (HNE) (Homo sapiens, UniProt P08246); assay: Human neutrophil elastase inhibition, spectrophotometric assay with chromogenic p-nitroanilide substrate; assay type: biochemical; conditions: individually resynthesised ReO metallopeptides Z-Aaa-Ser-Cys-Val-NH2 (deconvolution of the most active pool)
T1 construct: purchased Sigma (St. Louis, Mo.)
T1 sequence (P08246 30-267): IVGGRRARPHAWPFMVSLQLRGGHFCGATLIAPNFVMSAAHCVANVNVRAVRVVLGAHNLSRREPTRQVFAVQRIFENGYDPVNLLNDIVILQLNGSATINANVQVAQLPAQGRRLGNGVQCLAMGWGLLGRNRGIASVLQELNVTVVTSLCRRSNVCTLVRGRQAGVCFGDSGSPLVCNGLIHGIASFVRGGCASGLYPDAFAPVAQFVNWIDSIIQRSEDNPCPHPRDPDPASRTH
Method: Purified human neutrophil elastase (HNE) was purchased from Sigma (St. Louis, Mo.). The assay was performed spectrophotometrically using a chromogenic p-nitroanilide substrate, MeOSuc-Ala-Ala-Pro-Val-pNA, also purchased from Sigma. The assay protocols were similar to those described by others (e.g., Nakajima K et al: J Biol Chem, 254:4027-4032, 1979). Briefly, 0.05 units of HNE were treated with 1 mM concentration of the library pool in the presence of p-nitroanilide substrate. Spectrophotometric measurement were made at a wavelength of 410 nm. […] Also, among this limited series of compounds, benzyloxycarbonyl group was identified as a preferred R group where Bbb was a Gly, Ala, or Ser residue.
The pool with highest activity, Z-Aaa-Ser-Cys-Val-NH2, was deconvoluted by an iterative resynthesis process. All five individual peptides in this pool were synthesized by the methodologies and protocols of Example 10. Each individual peptide was characterized by mass spectrometry and HPLC. A screening assay was performed as generally described in Example 11. The best results were obtained with Leu or Ile in the position Aaa in the peptide chain. […] Substitution of the three residues Ala, Phe, and Lys(N-Z) at Aaa yielded IC50 values in excess of 1,000 μM.

[2] = cited from earlier work
[3] = related to the ionic core charge of the metal complex

Row | Compound | IC50 [1] | compartmentalisation / excretion / passage across biological barriers [2, 3] | also measured
1 | Z-Leu-Ser-Cys-Val-NH2 (Cbz-LSCV-NH2; not fully specified; printed as Z-Leu-Ser-Cys-Val-NH2) | 139 µM | – | –
2 | CCOC(=O)[C@H](C[S-])[N-]CCN[C@@H](C[S-])C(=O)OCC.[O-2].[Tc] [^99mTc-ECD, ethyl cysteinate dimer] | – | pass through the blood-brain barrier | –
3 | methoxyisobutylisonitrile [^99mTc-MIBI] | – | – | compartmentalisation / excretion / passage across biological barriers ([2]; in vivo): compartmentalized in heart muscles
4 | Cbz-ISCV-NH2 | 179 µM | – | –
5 | C/C(=N\O)C(C)NCC(C)(C)CNC(C)/C(C)=N/O (stereo not shown) [^99mTc-HMPAO, hexamethylpropyleneamine oxime, metal not drawn] | – | pass through the blood-brain barrier | –
6 | O=C(O)CNC(=O)CNC(=O)CNC(=O)CS [^99mTc-MAG3, mercaptoacetylglycylglycylglycine, metal not drawn] | – | excreted through the kidneys | –
7 | Z-Lys(N,-Z)-Ser-Cys-Val-NH2 | > 1000 µM | – | –
